Values of other authors as cited in patent publication US20240374563A1, “ANTICHOLINERGIC COMPOUNDS FOR USE IN TREATING NEUROMUSCULAR DISORDERS” (UNIVERSITY OF MONTRÉAL, priority 2022, published 2024).

System: ALS patients
Details: cited from earlier work

Nc1nc2ccc(OC(F)(F)F)cc2s1 [Riluzole]
share of ALS patients who benefit: 20%
